Data published in patent publication US9248108B2 (Ottawa Hospital Research Institute, priority 2012, dated 2016).
Marks after values point to notes of the source that are not given here.

How the values were obtained:
[1] = tested on: GV oocytes from 7-8-week-old CF1 mice; test: In vitro maturation (IVM) of GV oocytes from young CF1 mice, metaphase II egg karyotyping (chromosome staining only); format: cell-based, mouse
Method: Immature mouse oocytes (a.k.a. “GV oocytes” for the presence of intact germinal vesicle) from young CF1 mice (7-8 weeks of age) were cultured in medium (control) or medium containing 5 mM DFMO (Garcia-Faroldi et al., 2009).
All metaphase II eggs were subjected to karyotype analyses and counted spreads that contained 18 or more chromosomes and in which all chromosomes were close together, to eliminate over-spread karyotypes. Only hyperploid eggs, those containing 21 or more chromosomes, were considered aneuploid, to avoid artifacts due to loss of chromosomes during preparation of chromosome spreads (Koehler et al., 2006). In this set of experiments, in which only DNA staining was employed, hyperploid oocytes that contained extra whole chromosomes (dyads) were not distinguished from those that contained separated sister(s), because it is often difficult to differentiate a small chromosome dyad and a single sister in telocentric chromosomes such as in mouse.
Metaphase II eggs were karyotyped with chromosome staining only. N: total number of interpretable metaphase II spreads, with 18 or more chromosomes. Hypoploid: 18-19 chromosomes. Euploid: 20 chromosomes. Hyperploid: 21 chromosomes.
Mice were euthanized by cervical dislocation 44-46 h after they were primed with 5 IU equine chorionic gonadotropin (eCG) intraperitonally. […] Ovaries were immediately removed and minced in M2 medium (Sigma; unless otherwise indicated, other chemicals used in this study were also purchased from Sigma) to release oocytes. Oocytes with a clear germinal vesicle (GV) were used for in vitro maturation (IVM) for 17 hours in IVM medium (αMEM medium supplemented with 5% fetal bovine serum and 1 mM L-glutamine) overlaid with mineral oil.
Chromosome spread was carried out according to Hodges and Hunt (Hodges & Hunt, 2002) with minor modifications. In brief, oocytes or 2-cell embryos were collected in M2 medium. The zona pellucida was removed by treatment with 0.5 units/μl pronase at 37° C. for 20 sec. Zona-free oocytes/embryos were rinsed in M2 medium to detach polar bodies. The oocytes/embryos were individually plated onto glass slides (1-10 oocytes/embryos per slide) predipped in the fixative (prepared weekly and stored at 4° C.) containing 1% paraformaldehyde (w/v), 0.15% Triton X-100 (v/v), and 3 mM dithiothreitol, pH 9.2. Slides were kept overnight in moist boxes at room temperature. The slides were then rinsed in 0.5% Kodak Flo (Eastman Kodak Company, Rochester, N.Y.) solution and air-dried. The slides were incubated in 1:200 diluted human anti-centromere serum (Immunovision, Springdale, Ark.) in PBS containing 1% BSA overnight at 4° C., in 1:300 diluted secondary antibody (goat anti-human) conjugated with rhodamine (Jackson ImmunoResearch) in PBS-BSA for 1 h at room temperature, and 0.1% SYTOX green (Invitrogen, Eugene, Oreg.) in PBS for 30 min at room temperature. To avoid bias, the slides were coded by a colleague before being examined by an investigator using epifluorescence microscopy and photographed. Decoding was done after karyotypes were tabulated.

[2] = tested on: young (7-8 weeks) CF1 mice; test: DFMO in mouse drinking water, karyotyping of oviduct-derived metaphase II eggs; format: in vivo
Excerpt: The effect of DFMO on egg aneuploidy in vivo was also examined. […] Oviduct-derived metaphase II eggs, from control mice and DFMO treated mice, were subjected to karyotype analyses. In these and all subsequent egg karyotype analyses, anti-CREST antibodies were used to label centromeres (Hodges & Hunt, 2002), in addition to DNA staining. This modification allowed unambiguous identification of single sister chromatid(s) in metaphase II eggs, termed premature separation of sister chromatids (PSSC), the predominant form of mouse egg aneuploidies found in this study (see Table 3).
Hypoploid: 18-19 dyads. Euploid: 20 dyads. Hyperploid: 21 or 22 dyads. […] Aneuploid: 2×hyperploid+PSSC. Detailed breakdowns are in Table 7.
In order to collect mature (metaphase II) oocytes in vivo (ovulation experiments) each mouse was injected with 5 IU human chorionic gonadotropin (hCG) intraperitoneally 44-46 h after eCG priming. The animals were euthanized 16-18 h after hCG injection and MII eggs were flushed out of oviducts in M2 medium and subjected to karyotype analyses as described below. For mice that were treated with 1% DFMO in drinking water, the drugs were present until the time of euthanization (see FIG. 4 for details).
(§1) Decoding was done after karyotypes were tabulated.

[3] = tested on: GV oocytes from young hybrid F1 females (C57BL/6 x SPRET/Ei); test: IVM of GV oocytes from young hybrid F1 females, metaphase II egg karyotyping; format: cell-based, mouse; conditions: 17 h IVM, 5 mM DFMO
Method: Table 8 DFMO increases the egg aneuploidy rate of young hybrid F1 females. GV oocytes isolated from young (7-8 weeks) hybrid F1 females, via crossing C57BL/6 females and SPRET/Ei males, were incubated for 17 h in αMEM (control) or αMEM containing 5 mM DFMO. […] Hypoploid: 18-19 dyads. Euploid: 20 dyads. Hyperploid: 21 or 22 dyads. […] Aneuploid: 2×hyperploid+PSSC. Detailed breakdowns are in Table 9.
Two other mouse models were additionally used. First, DFMO was tested as a potential treatment to […] egg aneuploidy in the hybrid F1 females that has a high baseline aneuploidy rate similar to human (Koehler et al., 2006).
as §1

[4] = tested on: 2-cell embryos of young CF1 mice; test: DFMO in mouse drinking water prior to mating, 2-cell embryo karyotyping; format: in vivo
Method: Table 10 DFMO in mouse drinking water increases hyperploid 2-cell embryos. Young (7-8 weeks) CF1 mice were treated with regular water (control), or 1% DFMO drinking water for 48 h, prior to mating (see FIG. 5 for details). Embryos (2-cell) were isolated and subjected to karyotype analyses. N: Total interpretable 2-cell embryos. Euploid: 40 chromosomes in each of the two blastomeres, or 40 chromosomes in one blastomere with the other blastomere having less than 40 chromosomes or uninterpretable/lost. Hypoploid: 39 chromosomes in each of the two blastomeres, or 39 in one blastomere with the other less than 39 or uninterpretable/lost. Hyperploid: 41 chromosomes in at least one blastomere (we found no 42 or more chromosomes in this study). Detailed breakdowns are in Table 11.
To produce 2-cell embryos, mice were sequentially injected with eCG and hCG, as above for ovulation. After hCG injection, the females were caged singly with fertile young males overnight. For mice that were treated with 1% DFMO, the drug was withdrawn, and normal water resumed, at the time of hCG injection (see […] for details). The females were separated from the males in the next morning (day 1 post coital or p.c.). Females were euthanized in the late morning on day 2 p.c., and the embryos were collected by flushing the oviducts with M2 medium. After three rinses in KSOM medium, the embryos were cultured 17 h in KSOM containing 0.02 μg/ml colchicine to cause metaphase arrest of the 2-cell embryos.
as §1

ovarian ODC = target: T1, ovarian ODC (Mus musculus, UniProt P00860); test: Ovarian ODC activity assay; format: in vivo; conditions: 1% DFMO in drinking water, hCG-stimulated 8-week-old mice
T1 construct: The ovarian homogenates were centrifuged at 16,000×g for 10 min; Supernatants were applied to ODC assays; from tissue; host or cells: mouse ovary (C57BL/6, 8 weeks old, hCG-stimulated), homogenate supernatant
T1 sequence (P00860 1-461): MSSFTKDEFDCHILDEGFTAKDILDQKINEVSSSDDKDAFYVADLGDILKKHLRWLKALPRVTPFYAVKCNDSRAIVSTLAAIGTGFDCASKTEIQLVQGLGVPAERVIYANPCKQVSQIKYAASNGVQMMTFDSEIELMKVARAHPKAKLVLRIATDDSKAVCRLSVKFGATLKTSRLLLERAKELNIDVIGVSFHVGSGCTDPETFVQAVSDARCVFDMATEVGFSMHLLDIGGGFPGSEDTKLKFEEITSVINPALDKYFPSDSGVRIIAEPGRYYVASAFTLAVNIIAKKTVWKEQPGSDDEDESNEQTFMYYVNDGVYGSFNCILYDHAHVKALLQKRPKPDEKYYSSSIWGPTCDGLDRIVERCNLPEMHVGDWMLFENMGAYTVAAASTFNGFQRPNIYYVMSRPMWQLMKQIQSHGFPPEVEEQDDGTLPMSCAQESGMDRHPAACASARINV
Method: After 44-46 h eCG priming, or 6 h following the subsequent hCG injection, the ovaries were collected into Eppendorf tubes and frozen at −80° C. immediately till use. The ovaries were weighed and minced with optical scissors. Lysis buffer (25 mM Tris/HCl pH 7.2, 2 mM dithiothreitol, 0.1 mM EDTA, 0.25 M sucrose, 0.1% Triton X-100 (v/v); modified from Bastida et al. (Bastida et al., 2005) was added 25 μL per mg ovarian tissues and the resulting suspension homogenized by sonication (Fisher Sonic Demembrator, New York, USA) for 20 seconds thrice. The ovarian homogenates were centrifuged at 16,000×g for 10 min. Supernatants were applied to ODC assays (Zhou et al., 2009) in microtiter plates, each well containing 50 μL of lysate, plus 0.1 mM pyridoxyl-5-phosphate and 0.5 μCi (57.1 mCi/mmol) of 14C-labeled ornithine (PerkinElmer, Boston, Mass.). The wells were tightly covered with 3MM paper pre-wet in freshly prepared water-saturated Ba(OH)2. The wells were incubated 1 h at 37° C. ^14CO2 released from decarboxylation reaction formed Ba^14CO3 precipitates on filter. […] The Storage phosphor screen was then scanned on Typhoon™ imaging system (GE Healthcare Life Sciences), resulting in digital images that were then quantified by Image Quant5.2 (GE Healthcare Life Sciences). ODC activity is expressed as relative light intensity in arbitrary units.

ovarian polyamines = test: Ovarian polyamine quantification by ion chromatography; format: in vivo, mouse; conditions: 1% DFMO in drinking water for 48 hours up to sacrifice
Method: A Dionex ion chromatography system was used to analyze polyamines during ovulation. This system employs an online conductivity detector coupled with an anion suppressor such that only cations are detected. Ovaries were extracted in 5% trichloric acid (TCA) followed by extraction with diethyl ether. The TCA extracts were diluted in water before being applied to the ion chromatography system.
Polyamines from ovarian samples were determined by ion chromatography (IC) system (Rey and Pohl, 2003. J. Chromatography A 997:199-206). Ovaries were collected immediately after animal sacrifice and stored at −80° C. until use. The samples were thawed and minced, and then 5% trichloroacetic acid (TCA) was added (20 μl/mg). The samples were ultra-sonicated 30 seconds thrice. After centrifugation, the supernatants were extracted twice with diethyl ether. The mouse blood was collected in a tube containing 1 iu/ml heparin (LEO). After centrifugation, the supernatant (plasma) was collected and 10% TCA was added by 1:1 in volume. These plasma samples were extracted twice with diethyl ether, as noted above. The extracts were diluted 10 times in water for polyamine analysis on Dionex Ion ICS-2100 system (Thermo scientific, Dionex, Sunnyvale, Calif., USA) according to the manufacture instructions, using the support software of PeakNet 6.40 SP5 Build 778.

[5] = number of ovulated MII eggs, 1% DFMO drinking water 48 h
[6] = number of 2-cell embryos, 1% DFMO drinking water 48 h prior to mating
[7] = percent of interpretable 2-cell embryos, 1% DFMO drinking water 48 h

## NCCC[C@](N)(C(=O)O)C(F)F [DFMO, α-difluoromethylornithine]
[1]; 5 mM DFMO in IVM medium, 776/945
  first polar body emission: 82%
[1]; 17 h IVM, 5 mM
  % Hyperploidy: 4.9 * %
[1]; number of MII eggs with 18 chromosomes, 17 h IVM, 5 mM each agent in αMEM
  Hypoploid 18: 2
[1]; number of MII eggs with 19 chromosomes, 17 h IVM, 5 mM
  Hypoploid 19: 18
[1]; number of MII eggs with 20 chromosomes, 17 h IVM, 5 mM
  Eupoloid 20: 175
[1]; number of MII eggs with 21 chromosomes, 17 h IVM, 5 mM
  Hyperploid 21: 10
[1]; number of MII eggs with 22 chromosomes, 17 h IVM, 5 mM
  Hyperploid 22: 0
[2]; 1% DFMO drinking water 48 h
  % Hyperploidy: 1.1** %
[2]; 1% DFMO drinking water, n=37
  number of MII eggs collected from the oviducts: 29.3 /mouse
[2]; Aneuploid: 2×hyperploid+PSSC, 1% DFMO drinking water 48 h
  % Aneuploidy: 7.7%
[2]; number of eggs with separated sister chromatid(s), 1% DFMO drinking water 48 h
  PSSC: 14*
[2]; [5]
  Eupoloid 20: 191
  Hyperploid 21: 3
  Hyperploid 22: 0
  Hypoploid 18: 12
  Hypoploid 19: 41
[3]
  % Hyperploidy: 2.5** %
[3]; Aneuploid: 2×hyperploid+PSSC
  % Aneuploidy: 22.5%
[3]; number of MII eggs
  Euploid 20: 50
  Hyperploid 21: 2
  Hyperploid 22: 0
  Hypoploid 18: 5
  Hypoploid 19: 9
  PSSC: 14*
[4]; [6]
  Euploid 40: 38
  Hyperploid 41: 5
  Hypoploid 39: 5
[4]; [7]
  Euploid 40: 79.2%
  Hyperploid 41: 10.4%
  Hypoploid 39: 10.4%
Ovarian ODC
  ovarian ODC activity: efficiently inhibited
Ovarian polyamines
  hCG-mediated ovarian putrescine increase: completely eliminated
